Earlier results, collected in US11725025B2, “Progesterone phosphate analogs and uses related thereto” (EMORY UNIVERSITY, priority 2013, dated 2023).

Tests used:
[1] = test system: moderate to severe TBI patients; details: 3 days of intravenous progesterone treatment; 100 moderate to severe TBI patients

## CC(=O)[C@H]1CC[C@H]2[C@@H]3CCC4=CC(=O)CC[C@]4(C)[C@H]3CC[C@]12C [progesterone]
[1]
  functional outcomes at 30 days post-injury: significantly improved
  reduction of mortality: over 60%
other
  solubility in aqueous-based formulations: insoluble
